The target of one assay is Prothrombin (Homo sapiens, UniProt P00734). Briefly: Inhibition constant against human thrombin. As to conditions: read-out: Ki app.
For another assay, the target named is Coagulation factor X (Homo sapiens, UniProt P00742). Briefly: Inhibition constant against human factor Xa. The note with it: read-out: Ki app.
The target in assay [1] is Cationic trypsin (Bos taurus). Briefly: Inhibition constant against bovine trypsin.

Coagulation factor X, sequence (P00742 41-179 limits assumed): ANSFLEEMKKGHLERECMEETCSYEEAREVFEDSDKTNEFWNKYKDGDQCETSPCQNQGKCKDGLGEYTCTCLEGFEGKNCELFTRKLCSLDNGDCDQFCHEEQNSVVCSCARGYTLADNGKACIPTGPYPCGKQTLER
Coagulation factor X, sequence (P00742 235-488 limits assumed): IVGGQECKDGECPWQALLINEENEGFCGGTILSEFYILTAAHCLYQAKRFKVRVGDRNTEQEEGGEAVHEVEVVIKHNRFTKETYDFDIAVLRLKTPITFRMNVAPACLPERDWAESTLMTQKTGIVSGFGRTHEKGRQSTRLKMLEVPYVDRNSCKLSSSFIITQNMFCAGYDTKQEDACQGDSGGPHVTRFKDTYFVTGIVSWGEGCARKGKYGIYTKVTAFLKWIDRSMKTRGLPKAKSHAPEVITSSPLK

In the case of `Cc1ccc(NC(=O)c2sc3ccccc3c2Cl)c(C(=O)Nc2ccc(Cl)cn2)c1`, the Ki on Prothrombin is above 5 µM; on Coagulation factor X, 0.0023 µM. The compound also had a Ki app in assay [1] above 5 µM.
In the case of `Cc1cc(Cl)cc(C(=O)Nc2ccc(Cl)cc2)c1NC(=O)c1sc2ccccc2c1Cl`, the Ki at Prothrombin is above 5 µM; at Coagulation factor X, 0.0018 µM.
Take `Cc1ccc(NC(=O)c2sc3ccccc3c2Cl)c(C(=O)Nc2nccs2)c1`: the Ki at Prothrombin and on Coagulation factor X was above 5 µM in each case. This compound yielded a Ki app in assay [1] above 5 µM.
Regarding `Cc1ccc(NC(=O)c2scc(S(C)(=O)=O)c2Cl)c(C(=O)Nc2ccc(Cl)cc2)c1`, the Ki at Prothrombin was above 5 µM; on Coagulation factor X, 0.014 µM. In addition, the Ki app in assay [1] is above 5 µM.
Turning to `O=C(Nc1cccc(F)c1C(=O)Nc1ccc(Cl)cc1)c1sc2ccccc2c1Cl`, the Ki was above 5 µM at Prothrombin and 0.026 µM on Coagulation factor X. Besides, the Ki app in assay [1] was above 5 µM.
`Cc1ccc(NC(=O)c2cccnc2C)c(C(=O)Nc2ccc(Cl)cc2)c1`: the Ki at Prothrombin and on Coagulation factor X was above 5 µM throughout. This compound registered a Ki app in assay [1] above 5 µM.
For `COc1c(Br)csc1C(=O)Nc1ccc(C)cc1C(=O)Nc1ccc(Cl)cc1`, the Ki at Prothrombin is above 5 µM; on Coagulation factor X it was 0.054 µM.
With `Cc1ccc(NC(=O)c2sc3ccccc3c2Cl)c(C(=O)Nc2cccc(Cl)c2)c1`, the Ki at Prothrombin is above 5 µM; at Coagulation factor X it was 0.26 µM. Moreover, the Ki app in assay [1] was above 5 µM.
As to `O=C(Nc1cccc(Cl)c1C(=O)Nc1ccc(Cl)cc1)c1sc2ccccc2c1Cl`, the Ki at Prothrombin and at Coagulation factor X was above 5 µM each time. This compound also gave a Ki app in assay [1] above 5 µM.
In the case of `Cc1ccc(NC(=O)c2sc3ccccc3c2Cl)c(C(=O)Nc2ccc(C(F)(F)F)cc2)c1`, the Ki on Prothrombin and at Coagulation factor X was above 5 µM in each case. The Ki app in assay [1] was above 5 µM.
As to `O=C(Nc1ccc(Cl)cc1)c1cc(Cl)cc(O)c1NC(=O)c1sc2ccccc2c1Cl`, the results for the Ki on Prothrombin and at Coagulation factor X were above 5 µM and 0.0037 µM, respectively.
On to `Cc1ccc(NC(=O)c2sc3ccccc3c2Cl)c(C(=O)Nc2ccc(Cl)cc2)c1`, for which the Ki on Prothrombin is above 5 µM.
As to `Cc1cccc(C(=O)Nc2ccc(Cl)cc2)c1NC(=O)c1sc2ccccc2c1Cl`, the results for the Ki on Prothrombin and on Coagulation factor X were above 5 µM and 0.058 µM, respectively. This compound yielded a Ki app in assay [1] above 5 µM.
For `O=C(Nc1ccc(Cl)cc1)c1cc(Cl)c(F)cc1NC(=O)c1sc2ccccc2c1Cl`, the figures for the Ki on Prothrombin and at Coagulation factor X were above 5 µM and 0.007 µM, respectively.
On to `O=C(Nc1ccc(Cl)cc1)c1cc(O)ccc1NC(=O)c1sc2ccccc2c1Cl`, for which the Ki was above 5 µM on Prothrombin and 0.073 µM on Coagulation factor X. In assay [1], the Ki app was above 5 µM.
`O=C(Nc1ccc(Cl)cc1)c1cccc(O)c1NC(=O)c1sc2ccccc2c1Cl`: the figures for the Ki on Prothrombin and at Coagulation factor X were above 5 µM and 0.018 µM, respectively.
As for `O=C(Nc1ccc(Cl)cc1)c1cc(N2CCCC2)ccc1NC(=O)c1sc2ccccc2c1Cl`, the Ki at Prothrombin and on Coagulation factor X was above 5 µM throughout. Also, the Ki app in assay [1] was above 5 µM.
For `COc1cccc(C(=O)Nc2ccc(Cl)cc2)c1NC(=O)c1sc2ccccc2c1Cl`, the Ki was above 5 µM at Prothrombin and 0.022 µM on Coagulation factor X.
Turning to `O=C(Nc1ccc(Cl)cc1)c1ccccc1NC(=O)c1sc2ccccc2c1Cl`, the Ki on Prothrombin is above 5 µM; at Coagulation factor X, 0.007 µM. For the same compound, the Ki app in assay [1] is above 5 µM.
Consider `Cc1ccc(NC(=O)c2ccccc2Br)c(C(=O)Nc2ccc(Cl)cc2)c1`, for which the Ki at Prothrombin is above 5 µM; on Coagulation factor X it was 0.96 µM. Also, the Ki app in assay [1] was above 5 µM.
Take `Cc1ccc(NC(=O)c2ccc3ccccc3c2)c(C(=O)Nc2ccc(Cl)cc2)c1`: the Ki is above 5 µM at Prothrombin and 0.078 µM on Coagulation factor X. The same compound displayed a Ki app in assay [1] above 5 µM.
Take `O=C(Nc1ccc(Cl)cc1)c1ccc(C(F)(F)F)cc1NC(=O)c1sc2ccccc2c1Cl`: the Ki at Prothrombin is above 5 µM; on Coagulation factor X, 0.1 µM. Further, in assay [1], the Ki app is above 5 µM.
With `Cc1ccc(NC(=O)c2sc(C)nc2C)c(C(=O)Nc2ccc(Cl)cc2)c1`, the Ki on Prothrombin is above 5 µM; at Coagulation factor X it was 0.21 µM.
As for `Cc1ccc(NC(=O)c2sc3ccccc3c2Cl)c(C(=O)Nc2ccc(CN)cc2)c1`, the Ki on Prothrombin is above 5 µM; at Coagulation factor X it was 1.4 µM. This compound registered a Ki app in assay [1] above 5 µM.
For the compound `O=C(Nc1ccc(Cl)cc1)c1cc([N+](=O)[O-])ccc1NC(=O)c1sc2ccccc2c1Cl`, the values for the Ki at Prothrombin and at Coagulation factor X were above 5 µM and above 0.5 µM, respectively.
For `Cc1ccc(NC(=O)c2sc3ccccc3c2Cl)c(C(=O)Nc2ccccc2)c1`, the Ki was above 5 µM on Prothrombin and 0.019 µM at Coagulation factor X. The compound also came in with a Ki app in assay [1] above 5 µM.
Regarding `Cc1ccc(NC(=O)c2cc(C)ccc2NC(=O)c2sc3ccccc3c2Cl)cc1`, the figures for the Ki on Prothrombin and at Coagulation factor X were above 5 µM and 0.0071 µM, respectively. Besides, the Ki app in assay [1] is above 5 µM.
Take `COc1c(C(=O)Nc2ccc(C)cc2C(=O)Nc2ccc(Cl)cc2)sc2ccccc12`: the Ki is above 5 µM at Prothrombin and 0.0059 µM at Coagulation factor X. Besides, the Ki app in assay [1] was above 5 µM.
`Cc1ccc(NC(=O)c2sc3ccccc3c2O)c(C(=O)Nc2ccc(Cl)cc2)c1`: the Ki is above 5 µM on Prothrombin and 4.4 µM at Coagulation factor X.
As for `COC(=O)c1ccc(NC(=O)c2cc(C)ccc2NC(=O)c2sc3ccccc3c2Cl)cc1`, the Ki on Prothrombin and on Coagulation factor X was above 5 µM in each case. In assay [1], this compound had a Ki app above 5 µM.
`Cc1ccc(NC(=O)c2sc3ccccc3c2Cl)c(C(=O)Nc2ccccn2)c1`: the Ki at Prothrombin was above 5 µM; on Coagulation factor X it was 0.03 µM. This compound also returned a Ki app in assay [1] above 5 µM.
Regarding `COc1ccc(NC(=O)c2cc(C)ccc2NC(=O)c2sc3ccccc3c2Cl)cc1`, the Ki on Prothrombin was above 5 µM; at Coagulation factor X it was 0.016 µM. The compound also showed a Ki app in assay [1] above 5 µM.
On to `O=C(Nc1ccc(Cl)cc1)c1cccc(Cl)c1NC(=O)c1sc2ccccc2c1Cl`, for which the Ki at Prothrombin is above 5 µM; on Coagulation factor X, 0.024 µM. Moreover, in assay [1], the Ki app was above 5 µM.
Take `O=C(Nc1ccc(Cl)cc1)c1cc(F)ccc1NC(=O)c1sc2ccccc2c1Cl`: the figures for the Ki on Prothrombin and on Coagulation factor X were above 5 µM and 0.005 µM, respectively.
Regarding `CCOc1ccc(NC(=O)c2cc(C)ccc2NC(=O)c2sc3ccccc3c2Cl)cc1`, the Ki on Prothrombin and at Coagulation factor X was above 5 µM in each case. Also, the Ki app in assay [1] was above 5 µM.
`Cc1ccc(NC(=O)c2cc3ccccc3s2)c(C(=O)Nc2ccc(F)cc2)c1`: the Ki on Prothrombin is above 5 µM; at Coagulation factor X, 0.59 µM.
The corresponding values for `O=C(Nc1ccc(Cl)cc1)c1ccc(F)cc1NC(=O)c1sc2ccccc2c1Cl` are above 5 µM and 0.015 µM.
Take `Cc1ccc(NC(=O)c2sccc2Cl)c(C(=O)Nc2ccc(F)cc2)c1`: the Ki was above 5 µM on Prothrombin and 0.39 µM on Coagulation factor X. In assay [1], this compound yielded a Ki app above 5 µM.
As to `COc1ccc(COc2ccc(NC(=O)c3sc4ccccc4c3Cl)c(C(=O)Nc3ccc(Cl)cc3)c2)cc1`, the Ki on Prothrombin and on Coagulation factor X was above 5 µM throughout. For the same compound, in assay [1], the Ki app was above 5 µM.
For `CN1CCN(c2ccc(NC(=O)c3sc4ccccc4c3Cl)c(C(=O)Nc3ccc(Cl)cc3)c2)CC1`, the Ki at Prothrombin was above 5 µM; at Coagulation factor X it was 0.47 µM. In addition, the Ki app in assay [1] is above 5 µM.
On to `O=C(Nc1ccc(Cl)cc1)c1ccc(Cl)cc1NC(=O)c1sc2ccccc2c1Cl`, for which the values for the Ki on Prothrombin and on Coagulation factor X were above 5 µM and 0.026 µM, respectively.
`Cc1ccc(NC(=O)c2sc3ccccc3c2Cl)c(C(=O)Nc2ccc(C(=O)O)cc2)c1`: the values for the Ki at Prothrombin and on Coagulation factor X were above 5 µM and 4.7 µM, respectively. Moreover, the Ki app in assay [1] was above 5 µM.
In the case of `CSc1ncc(Cl)c(C(=O)Nc2ccc(C)cc2C(=O)Nc2ccc(Cl)cc2)n1`, the Ki at Prothrombin and at Coagulation factor X was above 5 µM in each case. In assay [1], this compound yielded a Ki app above 5 µM.
`Cc1ccc(NC(=O)c2sc3ccccc3c2Cl)c(C(=O)Nc2ccc(F)cc2)c1`: the Ki on Prothrombin was above 5 µM.
`Cc1ccc(NC(=O)c2sc3ccccc3c2Cl)c(C(=O)Nc2ccc(Br)cc2)c1`: the Ki at Prothrombin was above 5 µM; on Coagulation factor X, 0.00046 µM.
The corresponding values for `Cc1ccc(NC(=O)c2sccc2Cl)c(C(=O)Nc2ccc(Cl)cc2)c1` are above 5 µM and 0.13 µM.
Regarding `Nc1ccc(NC(=O)c2sc3ccccc3c2Cl)c(C(=O)Nc2ccc(Cl)cc2)c1`, the Ki on Prothrombin was above 5 µM; on Coagulation factor X it was 0.016 µM. In assay [1], the Ki app is above 5 µM.
With `Cc1ccc(NC(=O)c2sc3ccccc3c2Cl)c(C(=O)Nc2cccnc2)c1`, the Ki on Prothrombin was above 5 µM; at Coagulation factor X it was 0.21 µM. In assay [1], this compound had a Ki app above 5 µM.
Consider `Cc1cc(NC(=O)c2sc3ccccc3c2Cl)c(C(=O)Nc2ccc(Cl)cc2)cc1Cl`, for which the Ki is above 5 µM at Prothrombin and 0.011 µM on Coagulation factor X. In assay [1], this compound displayed a Ki app above 5 µM.
Turning to `Cc1ccc(NC(=O)c2sc3ccccc3c2Cl)c(C(=O)Nc2ccc(N)cc2)c1`, the Ki was above 5 µM at Prothrombin and 0.28 µM at Coagulation factor X.
With `Cc1cccc(NC(=O)c2sc3ccccc3c2Cl)c1C(=O)Nc1ccc(Cl)cc1`, the Ki on Prothrombin and on Coagulation factor X was above 5 µM throughout. The same compound yielded a Ki app in assay [1] above 5 µM.
With `Cc1ccc(NC(=O)c2sc3ccccc3c2Cl)c(C(=O)Nc2ccc(C#N)cc2)c1`, the Ki on Prothrombin is above 5 µM; on Coagulation factor X, 0.15 µM.
`Cc1ccc(NC(=O)c2sc3ccccc3c2C)c(C(=O)Nc2ccc(F)cc2)c1`: the Ki was above 5 µM at Prothrombin and 0.025 µM on Coagulation factor X. This compound also registered a Ki app in assay [1] above 5 µM.
For the compound `COc1ccsc1C(=O)Nc1ccc(C)cc1C(=O)Nc1ccc(Cl)cc1`, the results for the Ki at Prothrombin and at Coagulation factor X were above 5 µM and 0.16 µM, respectively. The Ki app in assay [1] was above 5 µM.
`CCOC(=O)COc1cccc(C(=O)Nc2ccc(Cl)cc2)c1NC(=O)c1sc2ccccc2c1Cl`: the results for the Ki on Prothrombin and on Coagulation factor X were above 5 µM and 0.022 µM, respectively. The compound also had a Ki app in assay [1] above 5 µM.
Turning to `Cc1ccc(NC(=O)c2sc3ccccc3c2Cl)c(C(=O)Nc2ccccc2Cl)c1`, the Ki at Prothrombin and at Coagulation factor X was above 5 µM throughout.

Source of the values: ChEMBL document CHEMBL1136562, “Structure-activity relationships of substituted benzothiophene-anthranilamide factor Xa inhibitors” (Bioorg Med Chem Lett, 2003).
